Measurements reported in patent publication US20170334899A1, “AMINO-SUBSTITUTED ISOTHIAZOLES” (Bayer Pharma Aktiengesellschaft, priority 2014, published 2017).

target: T1, catalytic domain of human Bub1 (amino acids 704-1085) (Homo sapiens, UniProt O43683); assay: Bub1 kinase assay (TR-FRET); format: biochemical; conditions: 10 μM ATP, avg, read-out: Bub1 avg (IC50 [mol/l])
T1 construct: catalytic domain of human Bub1 (amino acids 704-1085); His6 (N); made in house; host or cells: insect cells (Hi5)
In short: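 Readout is the 665/620 nm TR-FRET ratio from anti-phosphoserine antibody, Eu-labelled anti-mouse IgG and streptavidin-XL665, scaled between no-enzyme and uninhibited controls. Reaction: 1 μM biotinylated peptide, 10 μM ATP, 60 min, 22 °C, after 15 min compound preincubation with His6-Bub1 (704-1085, insect-expressed, ~200 ng/ml).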

T1 sequence (O43683 704-1085): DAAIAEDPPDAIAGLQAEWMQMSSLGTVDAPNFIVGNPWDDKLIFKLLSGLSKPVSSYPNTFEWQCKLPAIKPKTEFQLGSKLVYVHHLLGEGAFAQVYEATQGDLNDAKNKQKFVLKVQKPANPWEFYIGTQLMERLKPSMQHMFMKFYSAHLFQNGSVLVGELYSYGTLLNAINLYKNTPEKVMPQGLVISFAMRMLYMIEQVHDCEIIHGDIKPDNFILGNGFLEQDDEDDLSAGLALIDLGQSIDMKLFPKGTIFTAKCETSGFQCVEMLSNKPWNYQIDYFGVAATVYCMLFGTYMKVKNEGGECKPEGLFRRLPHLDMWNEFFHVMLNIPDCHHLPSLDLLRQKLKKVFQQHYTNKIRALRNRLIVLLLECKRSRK

Structure (SMILES)	IC50 [µM]
Cc1nsc(Nc2cnc(C(F)(F)F)cn2)c1C(=O)Nc1ccc(OCC2CCCN(CCF)C2)nc1 (stereo not drawn) [Example 325, N-(6-{[1-(2-fluoroethyl)piperidin-3-yl]methoxy}pyridin-3-yl)-3-methyl-5-{[5-(trifluoromethyl)pyrazin-2-yl]amino}-1,2-thiazole-4-carboxamide]	≥ 20
Cc1nsc(Nc2cnc(C(F)(F)F)cn2)c1C(=O)Nc1ccc(F)c(OC[C@@H]2CCN(CCC(F)(F)F)C2)c1 [Example 340, N-(4-fluoro-3-{[(3R)-1-(3,3,3-trifluoropropyl)pyrrolidin-3-yl]methoxy}phenyl)-3-methyl-5-{[5-(trifluoromethyl)pyrazin-2-yl]amino}-1,2-thiazole-4-carboxamide]	> 20
Cc1nsc(Nc2cnc(C(F)(F)F)cn2)c1C(=O)Nc1ccc(O[C@H]2CCN(CC(F)(F)F)C2)nc1 [Example 383, 3-methyl-N-(6-{[(3S)-1-(2,2,2-trifluoroethyl)pyrrolidin-3-yl]oxy}pyridin-3-yl)-5-{[5-(trifluoromethyl)pyrazin-2-yl]amino}-1,2-thiazole-4-carboxamide]	≥ 20
Cc1nsc(Nc2cnc(C(F)(F)F)cn2)c1C(=O)Nc1ccc(OCC2CCCN(CC(F)(F)F)C2)nc1 (stereo not drawn) [Example 326, 3-methyl-N-(6-{[1-(2,2,2-trifluoroethyl)piperidin-3-yl]methoxy}pyridin-3-yl)-5-{[5-(trifluoromethyl)pyrazin-2-yl]amino}-1,2-thiazole-4-carboxamide]	≥ 20
Cc1nsc(Nc2cnc(C(F)(F)F)cn2)c1C(=O)Nc1ccc(F)c(OCC2CCCN(CC(F)(F)F)C2)c1 (stereo not drawn) [Example 337, N-(4-fluoro-3-{[1-(2,2,2-trifluoroethyl)piperidin-3-yl]methoxy}phenyl)-3-methyl-5-{[5-(trifluoromethyl)pyrazin-2-yl]amino}-1,2-thiazole-4-carboxamide]	≥ 20
CCN1CCC(COc2ccc(NC(=O)c3c(C)nsc3Nc3cnc(C(F)(F)F)cn3)cn2)C(F)(F)C1 (stereo not drawn) [Example 393, N-{6-[(1-ethyl-3,3-difluoropiperidin-4-yl)methoxy]pyridin-3-yl}-3-methyl-5-{[5-(trifluoromethyl)pyrazin-2-yl]amino}-1,2-thiazole-4-carboxamide]	> 20
Cc1nsc(Nc2cnc(C(F)(F)F)cn2)c1C(=O)Nc1ccc(F)c(OC[C@H]2CCN(CC(F)F)C2)c1 [Example 397, N-(3-{[(3S)-1-(2,2-difluoroethyl)pyrrolidin-3-yl]methoxy}-4-fluorophenyl)-3-methyl-5-{[5-(trifluoromethyl)pyrazin-2-yl]amino}-1,2-thiazole-4-carboxamide]	> 20
Cc1nsc(Nc2cnc(C(F)(F)F)cn2)c1C(=O)Nc1ccc(OCCN(C)CCC(F)(F)F)nc1 [Example 351, 3-methyl-N-(6-{2-[methyl(3,3,3-trifluoropropyl)amino]ethoxy}pyridin-3-yl)-5-{[5-(trifluoromethyl)pyrazin-2-yl]amino}-1,2-thiazole-4-carboxamide]	≥ 20
Cc1nsc(Nc2cnc(C(F)(F)F)cn2)c1C(=O)Nc1ccc(F)c(OC[C@@H]2CCCN(CC(F)(F)F)C2)c1 [Example 342, N-(4-fluoro-3-{[(3R)-1-(2,2,2-trifluoroethyl)piperidin-3-yl]methoxy}phenyl)-3-methyl-5-{[5-(trifluoromethyl)pyrazin-2-yl]amino}-1,2-thiazole-4-carboxamide]	> 20
Cc1nsc(Nc2cnc(C(F)(F)F)cn2)c1C(=O)Nc1ccc(N2CCN(CC(F)F)CC2)cn1 [Example 372, N-{5-[4-(2,2-difluoroethyl)piperazin-1-yl]pyridin-2-yl}-3-methyl-5-{[5-(trifluoromethyl)pyrazin-2-yl]amino}-1,2-thiazole-4-carboxamide]	> 20
Cc1nsc(Nc2cnc(C(F)(F)F)cn2)c1C(=O)Nc1ccc(OCC2CCN(CCC(F)(F)F)CC2)nc1 [Example 347, 3-methyl-5-{[5-(trifluoromethyl)pyrazin-2-yl]amino}-N-(6-{[1-(3,3,3-trifluoropropyl)piperidin-4-yl]methoxy}pyridin-3-yl)-1,2-thiazole-4-carboxamide]	≥ 20
Cc1nsc(Nc2cnc(C(F)(F)F)cn2)c1C(=O)Nc1ccc(OCC2CCCN(CC(F)F)C2)nc1 (stereo not drawn) [Example 327, N-(6-{[1-(2,2-difluoroethyl)piperidin-3-yl]methoxy}pyridin-3-yl)-3-methyl-5-{[5-(trifluoromethyl)pyrazin-2-yl]amino}-1,2-thiazole-4-carboxamide]	≥ 20
Cc1nsc(Nc2cnc(C(F)(F)F)cn2)c1C(=O)Nc1ccc(O[C@@H]2CCCN(CCC(F)(F)F)C2)nc1 [Example 387, 3-methyl-5-{[5-(trifluoromethyl)pyrazin-2-yl]amino}-N-(6-{[(3R)-1-(3,3,3-trifluoropropyl)piperidin-3-yl]oxy}pyridin-3-yl)-1,2-thiazole-4-carboxamide]	> 20
Cc1nsc(Nc2cnc(C(F)(F)F)cn2)c1C(=O)Nc1ccc(O[C@@H]2CCN(CC(F)F)C2)nc1 [Example 379, N-(6-{[(3R)-1-(2,2-difluoroethyl)pyrrolidin-3-yl]oxy}pyridin-3-yl)-3-methyl-5-{[5-(trifluoromethyl)pyrazin-2-yl]amino}-1,2-thiazole-4-carboxamide]	≥ 20
Cc1nsc(Nc2cnc(C(F)(F)F)cn2)c1C(=O)Nc1ccc(N2CCN(CC(F)(F)F)CC2)nc1 [Example 360, 3-methyl-N-{6-[4-(2,2,2-trifluoroethyl)piperazin-1-yl]pyridin-3-yl}-5-{[5-(trifluoromethyl)pyrazin-2-yl]amino}-1,2-thiazole-4-carboxamide]	> 20
Cc1nsc(Nc2cnc(C(F)(F)F)cn2)c1C(=O)Nc1ccc(F)c(OC[C@@H]2CCCN(CCC(F)(F)F)C2)c1 [Example 395, N-(4-fluoro-3-{[(3R)-1-(3,3,3-trifluoropropyl)piperidin-3-yl]methoxy}phenyl)-3-methyl-5-{[5-(trifluoromethyl)pyrazin-2-yl]amino}-1,2-thiazole-4-carboxamide]	> 20

The remaining lines, values ahead:

IC50 [µM]	Structure (SMILES)
≥ 20	Cc1nsc(Nc2cnc(C(F)(F)F)cn2)c1C(=O)Nc1ccc(O[C@H]2CCN(CCC(F)(F)F)C2)nc1 [Example 384, 3-methyl-5-{[5-(trifluoromethyl)pyrazin-2-yl]amino}-N-(6-{[(3S)-1-(3,3,3-trifluoropropyl)pyrrolidin-3-yl]oxy}pyridin-3-yl)-1,2-thiazole-4-carboxamide]
≥ 20	Cc1nsc(Nc2cnc(C(F)(F)F)cn2)c1C(=O)Nc1ccc(F)c(OCC2CCCN(CCC(F)(F)F)C2)c1 (stereo not drawn) [Example 338, N-(4-fluoro-3-{[1-(3,3,3-trifluoropropyl)piperidin-3-yl]methoxy}phenyl)-3-methyl-5-{[5-(trifluoromethyl)pyrazin-2-yl]amino}-1,2-thiazole-4-carboxamide]
≥ 20	Cc1nsc(Nc2cc(C#N)ccn2)c1C(=O)Nc1ccc(OC2CCCN(C(=O)OC(C)(C)C)C2)nc1 (stereo not drawn) [Example 34, tert-Butyl 3({5-[({5-[(4-cyanopyridin-2-yl)amino]-3-methyl-1,2-thiazol-4-yl}-carbonyl)amino]pyridin-2-yl}oxy)piperidine-1-carboxylate]
≥ 20	Cc1nsc(Nc2cnc3ccccc3n2)c1C(=O)Nc1ccc(OC2CCCN(C(=O)OC(C)(C)C)C2)nc1 (stereo not drawn) [Example 31, tert-Butyl 3-{[5-({[3-methyl-5-(quinoxalin-2-ylamino)-1,2-thiazol-4-yl]carbonyl}-amino)pyridin-2-yl]oxy}piperidine-1-carboxylate]
≥ 20	Cc1nsc(Nc2cnc3ccccc3n2)c1C(=O)Nc1ccc(OC2CCCN(CC(F)F)C2)nc1 (stereo not drawn) [Example 33, N-(6-{[1-(2,2-Difluoroethyl)piperidin-3-yl]oxy}pyridin-3-yl)-3-methyl-5-(quinoxalin-2-ylamino)-1,2-thiazole-4-carboxamide]
> 20	Cc1nsc(Nc2cnc(C(F)(F)F)cn2)c1C(=O)Nc1ccc(O[C@H]2CCN(CC(F)(F)F)C[C@@H]2F)nc1 [Example 363, N-(6-{[(3S,4S)-3-fluoro-1-(2,2,2-trifluoroethyl)piperidin-4-yl]oxy}pyridin-3-yl)-3-methyl-5-{[5-(trifluoromethyl)pyrazin-2-yl]amino}-1,2-thiazole-4-carboxamide]
> 20	Cc1nsc(Nc2cnc(C(F)(F)F)cn2)c1C(=O)Nc1ccc(F)c(OC[C@@H]2CCCN(CC(F)F)C2)c1 [Example 341, N-(3-{[(3R)-1-(2,2-difluoroethyl)piperidin-3-yl]methoxy}-4-fluorophenyl)-3-methyl-5-{[5-(trifluoromethyl)pyrazin-2-yl]amino}-1,2-thiazole-4-carboxamide]
18	Cc1nsc(Nc2cnc(C(F)(F)F)cn2)c1C(=O)Nc1ccc(OCCNCCC(F)(F)F)nc1 [Example 323, 3-methyl-5-{[5-(trifluoromethyl)pyrazin-2-yl]amino}-N-(6-{2-[(3,3,3-trifluoropropyl)amino]ethoxy}pyridin-3-yl)-1,2-thiazole-4-carboxamide]
19	Cc1nsc(Nc2cnc(C(F)(F)F)cn2)c1C(=O)Nc1ccc(OC2CCN(C(CF)CF)CC2)nc1 [Example 324, N-(6-{[1-(1,3-difluoropropan-2-yl)piperidin-4-yl]oxy}pyridin-3-yl)-3-methyl-5-{[5-(trifluoromethyl)pyrazin-2-yl]amino}-1,2-thiazole-4-carboxamide]
16	CCN1CC[C@H](Oc2ccc(NC(=O)c3c(C)nsc3Nc3cnc(C(F)(F)F)cn3)cn2)[C@@H](F)C1 [Example 365, N-(6-{[(3S,4S)-1-ethyl-3-fluoropiperidin-4-yl]oxy}pyridin-3-yl)-3-methyl-5-{[5-(trifluoromethyl)pyrazin-2-yl]amino}-1,2-thiazole-4-carboxamide]
14	Cc1nsc(Nc2cnc(C(F)(F)F)cn2)c1C(=O)Nc1ccc(O[C@H]2CCN(CC(F)F)C[C@@H]2F)nc1 [Example 362]
